# PubChem BioAssay AID1259408 (Genetic Toxicology Data Bank (GENE-TOX), 2018)
# Activity calls are given as the source filed them. No rule for the calls is given here.
# Test system: GENE-TOX genotoxicity assays, various organisms and cells
# Assay: GENE-TOX mutagenicity studies
# Conditions: for call: Assay Type: In vivo carcinogenicity studies, Assay Code: CCG+
# [1] = Species/Cell Type: Drosophila melanogaster, Assay Type: Sex-linked recessive lethal gene mutation, Assay Code: SRL+, Evaluation Type: Evaluation A (Pre-1980)
# [2] = Species/Cell Type: Escherichia coli polA (W3119 vs P3478), Assay Type: Rec-assay, DNA effects (bacterial DNA repair), Assay Code: RE1T, Evaluation Type: Evaluation A (Pre-1980)
# [3] = Species/Cell Type: Mammalian polychromatic erythrocytes, Assay Type: Micronucleus test, chromosome aberrations, Assay Code: MNT+, Evaluation Type: Evaluation A (Pre-1980)
# [4] = Species/Cell Type: Nonhuman, Evaluation Type: Evaluation A (Pre-1980)
# [5] = Species/Cell Type: Salmonella typhimurium (one or more of the five standard strains: TA98, TA100, TA1535, TA1537, and TA1538), Assay Type: Histidine reverse gene mutation, Ames assay, Assay Code: SAL+, Evaluation Type: Evaluation A (Pre-1980)
# [6] = Species/Cell Type: Salmonella typhimurium (one or more of the five standard strains: TA98, TA100, TA1535, TA1537, and TA1538), Assay Type: Histidine reverse gene mutation, Ames assay, Assay Code: SAL+*, Activation: With metabolic activation, Evaluation Type: Evaluation A (Pre-1980)
compound,measurement,setting,value
COP(=O)(OC)OC,mutagenic call,[1],active; positive
same,mutagenic call,[2],no conclusion
same,mutagenic call,"Species/Cell Type: Human lymphocytes or leukocytes, Assay Type: Chromosome aberrations in vitro, Assay Code: CY7+D, Dose Response: With dose response, Evaluation Type: Evaluation A (Pre-1980)",active; positive
same,mutagenic call,[3],active; positive
same,mutagenic call,"Species/Cell Type: Mouse, Sex: Male, Assay Type: Sperm morphology, Assay Code: SPI+, Evaluation Type: Evaluation A (Pre-1980)",active; positive
same,call,[4],active; positive
same,mutagenic call,"Species/Cell Type: Rodents, Sex: Male, Assay Type: Dominant lethal test, Assay Code: DLT+D, Dose Response: With dose response, Evaluation Type: Evaluation A (Pre-1980)",active; positive
same,mutagenic call,"Species/Cell Type: Tradescantia species, Assay Type: Gene mutation, Assay Code: TRM+D, Dose Response: With dose response, Evaluation Type: Evaluation A (Pre-1980)",active; positive
Cc1c2ccccc2c(C)c2c1ccc1cccc(F)c12,mutagenic call,"Species/Cell Type: Chinese hamster lung (V79) cells, Assay Type: Forward gene mutation at the HPRT or ouabain locus, Assay Code: V79-*, Activation: With metabolic activation, Evaluation Type: Evaluation A (Pre-1980)",inactive; negative
O=C1c2ccccc2C(=O)c2c(O)c(S(=O)(=O)O)cc(O)c21,mutagenic call,[5],active; positive
CN(C)N=O,mutagenic call,"Species/Cell Type: Arabidopsis species, Assay Type: Gene mutation, Assay Code: ARM+D, Dose Response: With dose response, Evaluation Type: Evaluation A (Pre-1980)",active; positive
same,mutagenic call,"Species/Cell Type: Chinese hamster lung (V79) cells, Assay Type: Forward gene mutation at the HPRT or ouabain locus, Assay Code: V79+, Evaluation Type: Evaluation A (Pre-1980)",active; positive
same,mutagenic call,"Species/Cell Type: Chinese hamster ovary (CHO) cells, Assay Type: Forward gene mutation at the HPRT locus, Assay Code: CHO+*, Activation: With metabolic activation, Evaluation Type: Evaluation B (Post-1980)",active; positive
same,mutagenic call,"Species/Cell Type: Chinese hamster ovary (CHO) cells, Assay Type: Forward gene mutation at the HPRT locus, Assay Code: CHO+D, Dose Response: With dose response, Evaluation Type: Evaluation A (Pre-1980)",active; positive
same,mutagenic call,[1],active; positive
same,mutagenic call,"Species/Cell Type: Drosophila melanogaster, Sex: Male, Assay Type: Heritable translocation test, chromosome aberrations, Assay Code: DHT+, Evaluation Type: Evaluation A (Pre-1980)",active; positive
same,mutagenic call,"Species/Cell Type: Escherichia coli WP2, Assay Type: Tryptophan reverse gene mutation, Assay Code: WP2+*, Activation: With metabolic activation, Evaluation Type: Evaluation A (Pre-1980)",active; positive
same,mutagenic call,"Species/Cell Type: Escherichia coli WP2 UVRA, Assay Type: Tryptophan reverse gene mutation, Assay Code: WPU+*, Activation: With metabolic activation, Evaluation Type: Evaluation A (Pre-1980)",active; positive
same,mutagenic call,"Species/Cell Type: Escherichia coli polA (W3110 vs P3478), Assay Type: Rec-assay, DNA effects (bacterial DNA repair), Assay Code: RE2+, Evaluation Type: Evaluation A (Pre-1980)",active; positive
same,mutagenic call,[2],no conclusion
same,mutagenic call,"Species/Cell Type: Fischer rat embryo (RLV/1706) cells, Assay Type: Cell transformation, viral enhanced, Assay Code: CTRT, Evaluation Type: Evaluation A (Pre-1980)",no conclusion
same,mutagenic call,"Species/Cell Type: Human diploid fibroblasts, Assay Type: Unscheduled DNA synthesis (UDS) in vitro, DNA effects, Assay Code: UDH+D, Dose Response: With dose response, Evaluation Type: Evaluation A (Pre-1980)",active; positive
same,mutagenic call,"Species/Cell Type: Human lymphocytes, Assay Type: Sister-chromatid exchange (SCE) in vitro, Assay Code: SCL+D*, Activation: With metabolic activation, Dose Response: With dose response, Evaluation Type: Evaluation B (Post-1980)",active; positive
same,mutagenic call,"Species/Cell Type: Human, Assay Type: Sister-chromatid exchange (SCE) in vitro, Assay Code: SC1+D*, Activation: With metabolic activation, Dose Response: With dose response, Evaluation Type: Evaluation B (Post-1980)",active; positive
same,mutagenic call,"Species/Cell Type: Mammalian germ cells, Sex: Male, Assay Type: Chromosome aberrations in vivo, Assay Code: CY9-, Evaluation Type: Evaluation A (Pre-1980)",inactive; negative
same,mutagenic call,[3],active; positive
same,mutagenic call,"Species/Cell Type: Mouse germ cells, Sex: Male, Assay Type: Unscheduled DNA synthesis (UDS) in vivo, DNA effects, Assay Code: UDT-, Evaluation Type: Evaluation A (Pre-1980)",inactive; negative
same,mutagenic call,"Species/Cell Type: Mouse lymphoma (L5178Y) cells, Assay Type: Forward gene mutation at the thymidine kinase (TK) locus, chromosome aberrations, Assay Code: L51+*, Activation: With metabolic activation, Evaluation Type: Evaluation A (Pre-1980)",active; positive
same,mutagenic call,"Species/Cell Type: Mouse, Sex: Female, Assay Type: Spot test, gene mutation, Assay Code: MSTT, Evaluation Type: Evaluation A (Pre-1980)",no conclusion
same,mutagenic call,"Species/Cell Type: Mouse, Sex: Male, Assay Type: Sperm morphology, Assay Code: SPI-, Evaluation Type: Evaluation A (Pre-1980)",inactive; negative
same,mutagenic call,"Species/Cell Type: Neurospora crassa, Assay Type: Forward gene mutation, Assay Code: NEF+*, Activation: With metabolic activation, Evaluation Type: Evaluation A (Pre-1980)",active; positive
same,mutagenic call,"Species/Cell Type: Neurospora crassa, Assay Type: Reverse gene mutation, Assay Code: NER+, Evaluation Type: Evaluation A (Pre-1980)",active; positive
same,mutagenic call,"Species/Cell Type: Nonhuman, Assay Type: Chromosome aberrations in vitro, Assay Code: CY&+D*, Activation: With metabolic activation, Dose Response: With dose response, Evaluation Type: Evaluation A (Pre-1980)",active; positive
same,call,[4],active; positive
same,mutagenic call,"Species/Cell Type: Nonhuman, Assay Type: Sister-chromatid exchange (SCE) in vitro, Assay Code: SC2+D, Dose Response: With dose response, Evaluation Type: Evaluation A (Pre-1980)",active; positive
same,mutagenic call,"Species/Cell Type: Nonhuman, Assay Type: Sister-chromatid exchange (SCE) in vivo, Assay Code: SC3+D, Dose Response: With dose response, Evaluation Type: Evaluation A (Pre-1980)",active; positive
same,mutagenic call,"Species/Cell Type: Rat primary hepatocytes, Assay Type: Unscheduled DNA synthesis (UDS) in vitro, DNA effects, Assay Code: UDP+, Evaluation Type: Evaluation A (Pre-1980)",active; positive
same,mutagenic call,"Species/Cell Type: Rodents, Sex: Male, Assay Type: Dominant lethal test, Assay Code: DLTT, Evaluation Type: Evaluation A (Pre-1980)",no conclusion
same,mutagenic call,"Species/Cell Type: Saccharomyces cerevisiae, Assay Type: Forward gene mutation, Assay Code: YEF+*, Activation: With metabolic activation, Evaluation Type: Evaluation A (Pre-1980)",active; positive
same,mutagenic call,"Species/Cell Type: Saccharomyces cerevisiae, Assay Type: Mitotic recombination or gene conversion, Assay Code: YEC+*, Activation: With metabolic activation, Evaluation Type: Evaluation A (Pre-1980)",active; positive
same,mutagenic call,"Species/Cell Type: Saccharomyces cerevisiae, Assay Type: Mitotic recombination or gene conversion, Assay Code: YEH+, Evaluation Type: Evaluation A (Pre-1980)",active; positive
same,mutagenic call,[6],active; positive
same,mutagenic call,"Species/Cell Type: Salmonella typhimurium, Escherichia coli, Neurospora crassa, Saccharomyces cerevisiae, Chinese hamster ovary (CHO) and l, Assay Type: Forward and reverse gene mutation, chromosome aberrations, mitotic recombination and gene conversion, DNA effects, host-, Assay Code: HM4+, Evaluation Type: Evaluation A (Pre-1980)",active; positive
same,mutagenic call,"Species/Cell Type: Salmonella typhimurium, Assay Type: Forward and reverse gene mutation, body fluid assay, Assay Code: BFU+, Evaluation Type: Evaluation A (Pre-1980)",active; positive
same,mutagenic call,"Species/Cell Type: Schizosaccharomyces pombe, Assay Type: Forward gene mutation, Assay Code: YEY+*, Activation: With metabolic activation, Evaluation Type: Evaluation A (Pre-1980)",active; positive
same,mutagenic call,"Species/Cell Type: Syrian hamster embryo (SHE) cells, Assay Type: Cell transformation, clonal assay, Assay Code: CTCT, Evaluation Type: Evaluation A (Pre-1980)",no conclusion
CCC1(CC)C(=O)NC(=O)NC1=O,mutagenic call,"Species/Cell Type: Nonhuman bone marrow, Assay Type: Chromosome aberrations, in vivo, Assay Code: CY#+, Evaluation Type: Evaluation A (Pre-1980)",active; positive
same,mutagenic call,"Species/Cell Type: Nonhuman, Assay Type: Sister-chromatid exchange (SCE) in vitro, Assay Code: SC2-, Evaluation Type: Evaluation A (Pre-1980)",inactive; negative
O=[N+]([O-])c1ccc(N2CC2)c2c1no[n+]2[O-],mutagenic call,[5],active; positive
Cc1cc(C(C)(C)C)c(O)c(C(C)(C)C)c1,mutagenic call,"Species/Cell Type: Allium cepa, Assay Type: Chromosome aberrations, Assay Code: ALC+, Evaluation Type: Evaluation A (Pre-1980)",active; positive
same,mutagenic call,"Species/Cell Type: Drosophila melanogaster, Assay Type: Aneuploidy, whole sex chromosome loss, chromosome aberrations, Assay Code: DAC+M, Evaluation Type: Evaluation A (Pre-1980)",active; positive
same,mutagenic call,"Species/Cell Type: Drosophila melanogaster, Assay Type: Sex-linked recessive lethal gene mutation, Assay Code: SRL-, Evaluation Type: Evaluation A (Pre-1980)",inactive; negative
same,mutagenic call,"Species/Cell Type: Drosophila melanogaster, Sex: Male, Assay Type: Heritable translocation test, chromosome aberrations, Assay Code: DHTT, Evaluation Type: Evaluation A (Pre-1980)",no conclusion
same,mutagenic call,"Species/Cell Type: Mammalian polychromatic erythrocytes, Assay Type: Micronucleus test, chromosome aberrations, Assay Code: MNTT, Evaluation Type: Evaluation A (Pre-1980)",no conclusion
same,mutagenic call,"Species/Cell Type: Mouse, Sex: Male, Assay Type: Specific locus test, gene mutation, Assay Code: SLT-, Evaluation Type: Evaluation A (Pre-1980)",inactive; negative
same,mutagenic call,"Species/Cell Type: Mouse, Sex: Male, Assay Type: Sperm morphology, Assay Code: SPIT, Evaluation Type: Evaluation A (Pre-1980)",no conclusion
same,mutagenic call,"Species/Cell Type: Salmonella typhimurium (one or more of the five standard strains: TA98, TA100, TA1535, TA1537, and TA1538), Assay Type: Histidine reverse gene mutation, Ames assay, Assay Code: SAL-, Evaluation Type: Evaluation A (Pre-1980)",inactive; negative
ClC(Cl)c1ccccc1,mutagenic call,"Species/Cell Type: Bacillus subtilis (H17 vs M45), Assay Type: Rec-assay, spot test, DNA effects (bacterial DNA repair), Assay Code: REW+, Evaluation Type: Evaluation A (Pre-1980)",active; positive
same,mutagenic call,[6],active; positive
Cc1c2ccncc2c(C)c2c1[nH]c1ccccc12,mutagenic call,"Species/Cell Type: Chinese hamster ovary (CHO) cells, Assay Type: Forward gene mutation at the HPRT locus, Assay Code: CHO+, Evaluation Type: Evaluation B (Post-1980)",active; positive
same,mutagenic call,"Species/Cell Type: Nonhuman, Assay Type: Sister-chromatid exchange (SCE) in vitro, Assay Code: SC2+, Evaluation Type: Evaluation B (Post-1980)",active; positive
Cc1cc2ccccc2c2c(F)cc3ccccc3c12,mutagenic call,"Species/Cell Type: Salmonella typhimurium (one or more of the five standard strains: TA98, TA100, TA1535, TA1537, and TA1538), Assay Type: Histidine reverse gene mutation, Ames assay, Assay Code: SALT, Evaluation Type: Evaluation A (Pre-1980)",no conclusion
